Assays:
SRC = SRC (Homo sapiens, UniProt P12931); experiment: SRC Biochemical Assay Protocol (microfluidic mobility shift assay, FLPeptide4 substrate)
Procedure, shortened: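 Recombinant SRC (0.26 nM) preincubated 30 min at RT with compound (0.0017–100 μM) and 1.5 μM FLPeptide4, then 50 μM ATP added; 90 min reaction in HEPES pH 7.4, 10 mM MgCl2, 1% DMSO, EDTA-quenched. Phosphopeptide quantified by microfluidic mobility shift; IC50 from 4-parameter logistic fit.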

RBE cells = experiment: Cell Viability Protocol (CellTiterGlo), RBE cells; assay type: cell-based; conditions: RBE or SNU-1079 cells, 72 or 120 hour, cell line and time not given
Procedure, shortened: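 RBE cells plated at 1200/well in RPMI 1640 with 10% FBS, incubated 24 h, then dosed with compound from DMSO stocks and incubated 72 or 120 h at 37° C. CellTiterGlo luminescence normalised to DMSO control; IC50 from 4-parameter fit.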

[1] = system: phospho-S6RP (Ser 235/236) in RBE cells; experiment: Cellular Proliferation Protocol (cellular phospho-S6RP HTRF), RBE cells; assay type: cell-based; conditions: 6 hours treatment, RBE or SNU-1079 cells, cell line not given
Procedure, shortened: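 RBE cells, 2000/well, seeded 24 h before 6 h compound treatment at 37° C. Lysates were probed with a Eu-cryptate/d2 HTRF antibody sandwich for phospho-S6RP (Ser 235/236), incubated overnight at room temperature. Signal normalised to DMSO control and IC50 fitted to a 4-parameter curve.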

Row | IC50 (SRC) | Compound | IC50 (RBE cells) | IC50 [1] | IC50 ([1]; 6 h)
1 | 10 to 1000 nM | C=CC(=O)NC1(C(=O)N2CCC(C#Cc3c(-c4ccc(Oc5ccccc5)cc4)c4c(N)ncnc4n3C)CC2)CN(C)C1 [II-196, N-(3-(4-((4-amino-7-methyl-5-(4-phenoxyphenyl)-7H-pyrrolo[2,3-d]pyrimidin-6-yl)ethynyl)piperidine-1-carbonyl)-1-methylazetidin-3-yl)acrylamide] | ≤ 10 nM |  | ≤ 10 nM
2 | ≤ 10 nM | Cn1c(C#CC2CCCN(C(=O)/C=C/CN3CCC3)CC2)c(-c2ccc(Oc3ccccc3)cc2)c2c(N)ncnc21 (stereo not drawn) [II-182, (E)-1-(4-((4-amino-7-methyl-5-(4-phenoxyphenyl)-7H-pyrrolo[2,3-d]pyrimidin-6-yl)ethynyl)azepan-1-yl)-4-(azetidin-1-yl)but-2-en-1-one] | ≤ 10 nM |  | ≤ 10 nM
3 | ≤ 10 nM | C=CC(=O)N1C[C@@H]2[C@@H](C#Cc3c(-c4ccc(Oc5ccccc5)cc4)c4c(N)ncnc4n3CCOC)[C@@H]2C1 [II-229, 1-((1R,5S,6s)-6-((4-amino-7-(2-methoxyethyl)-5-(4-phenoxyphenyl)-7H-pyrrolo[2,3-d]pyrimidin-6-yl)ethynyl)-3-azabicyclo[3.1.0]hexan-3-yl)prop-2-en-1-one] | ≤ 10 nM |  | ≤ 10 nM
4 | 10 to 1000 nM | C/C=C/S(=O)(=O)N1CCC(N2CC(C#Cc3c(-c4ccc(Oc5ccccc5)cc4)c4c(N)ncnc4n3C)C2)CC1 [II-177, (E)-7-methyl-5-(4-phenoxyphenyl)-6-((1-(1-(prop-1-enylsulfonyl)piperidin-4-yl)azetidin-3-yl)ethynyl)-7H-pyrrolo[2,3-d]pyrimidin-4-amine] | 10 to 1000 nM |  | 10 to 1000 nM
5 | 10 to 1000 nM | COCCN(C)C/C=C/C(=O)N1C[C@@H]2[C@@H](C#Cc3c(-c4ccc(Oc5cccc(C)n5)c(OC)c4)c4c(N)ncnc4n3C)[C@@H]2C1 [II-237, (E)-1-((1R,5S,6s)-6-((4-amino-5-(3-methoxy-4-((6-methylpyridin-2-yl)oxy)phenyl)-7-methyl-7H-pyrrolo[2,3-d]pyrimidin-6-yl)ethynyl)-3-azabicyclo[3.1.0]hexan-3-yl)-4-((2-methoxyethyl) (methyl)amino)but-2-en-1-one] | 10 to 1000 nM |  | 10 to 1000 nM
6 | ≤ 10 nM | C=CC(=O)NCC(=O)N1C[C@@H]2[C@@H](C#Cc3c(-c4ccc(Oc5cccc(C)n5)cc4)c4c(N)ncnc4n3C)[C@@H]2C1 [II-212, N-[2-[(1R,5S,6S)-6-[2-(4-amino-7-methyl-5-[4-[(6-methylpyridin-2-yl)oxy]phenyl]-7H-pyrrolo[2,3-d]pyrimidin-6-yl)ethynyl]-3-azabicyclo[3.1.0]hexan-3-yl]-2-oxoethyl]prop-2-enamide] | ≤ 10 nM |  | ≤ 10 nM
7 | ≤ 10 nM | C=CC(=O)N1CCC(N2CC(C#Cc3c(-c4ccc(Br)c(OC)c4)c4c(N)ncnc4n3C(C)C)C2)CC1 [II-161, 1-(4-(3-((4-amino-5-(4-bromo-3-methoxyphenyl)-7-isopropyl-7H-pyrrolo[2,3-d]pyrimidin-6-yl)ethynyl)azetidin-1-yl)piperidin-1-yl)prop-2-en-1-one] | 10 to 1000 nM |  | 10 to 1000 nM
8 | 10 to 1000 nM | C=CC(=O)N1CCC(N2CC(C#Cc3c(-c4ccc(Cl)cn4)c4c(N)ncnc4n3C)C2)CC1 [II-325] | 1000 to 10000 nM | 1000 to 10000 nM | 
9 | ≤ 10 nM | C=CC(=O)N1CCC(C#Cc2c(-c3ccc(Br)c(OC)c3)c3c(N)ncnc3n2C(C)C)CC1 [II-160, 1-(4-((4-amino-5-(4-bromo-3-methoxyphenyl)-7-isopropyl-7H-pyrrolo[2,3-d]pyrimidin-6-yl)ethynyl)piperidin-1-yl)prop-2-en-1-one] | 10 to 1000 nM |  | 10 to 1000 nM
10 | ≤ 10 nM | C=CC(=O)NCC(=O)N1C[C@@H]2[C@@H](C#Cc3c(-c4ccc(Oc5ccccc5)cc4)c4c(N)ncnc4n3C)[C@@H]2C1 [II-211, N-[2-[(1R,5S,6S)-6-[2-[4-amino-7-methyl-5-(4-phenoxyphenyl)-7H-pyrrolo[2,3-d]pyrimidin-6-yl]ethynyl]-3-azabicyclo[3.1.0]hexan-3-yl]-2-oxoethyl]prop-2-enamide] | ≤ 10 nM |  | ≤ 10 nM

More lines, now with the values behind:

Row | Compound | IC50 (SRC) | IC50 (RBE cells) | IC50 [1] | IC50 ([1]; 6 h)
11 | 1-((3S,4R)-4-(3-((4-amino-7-methyl-5-(4-(1-methyl-cyclopropoxy)phenyl)-7H-pyrrolo[2,3-d]pyrimidin-6-yl)ethynyl)azetidin-1-yl)-3-hydroxypiperidin-1-yl)prop-2-en-1-one [II-17] | 10 to 1000 nM | ≤ 10 nM | ≤ 10 nM | 
12 | 1-((1R,5S,6s)-6- ((4-amino-5-(2- methoxy-4-((6- methylpyridin-2- yl)oxy)phenyl)-7- (2-methoxyethyl)- 7H-pyrrolo[2,3- d]pyrimidin-6- yl)ethynyl)-3- azabicyclo[3.1.0] hexan-3-yl)prop-2- en-1-one [II-275] | 10 to 1000 nM | 10 to 1000 nM | 10 to 1000 nM | 
13 | 1-(4-(3-((4-amino-5-(3-ethoxy-4-phenoxyphenyl)-7-methyl-7H-pyrrolo[2,3-d]pyrimidin-6-yl)ethynyl)azetidin-1-yl)piperidin-1-yl)prop-2-en-1-one [II-36] | 10 to 1000 nM | 10 to 1000 nM | 10 to 1000 nM | 
14 | C=CC(=O)N1CCC(N2CC(C#Cc3c(-c4ccc(Oc5ccccc5)c(OC)c4)c4c(N)ncnc4n3C)C2)CC1 [II-1] | 10 to 1000 nM | ≤ 10 nM |  | ≤ 10 nM
15 | C=CC(=O)N1CC2C(C#Cc3c(-c4ccc(Cl)c5c4OC(F)(F)O5)c4c(N)ncnc4n3C)C2C1 (stereo not drawn) [II-128] | 1000 to 10000 nM | 10 to 1000 nM | 1000 to 10000 nM | 
16 | C=CC(=O)N1CCC(N2CC(C#Cc3c(-c4ccc(Oc5cccc(C)n5)c(OC)c4)c4c(N)nccc4n3C)C2)CC1 [II-80] | 1000 to 10000 nM | 10 to 1000 nM | 1000 to 10000 nM | 
17 | C=CC(=O)N1C[C@@H]2[C@@H](C#Cc3c(-c4ccc(Oc5cccc(C)n5)cc4OC)c4c(N)ncnc4n3C)[C@@H]2C1 [II-42] | 10 to 1000 nM | 10 to 1000 nM | 10 to 1000 nM | 
18 | C=CC(=O)N1CC2C(C#Cc3c(-c4cccc5c4OC(F)(F)O5)c4c(N)ncnc4n3C)C2C1 (stereo not drawn) [II-129] | 1000 to 10000 nM | 10 to 1000 nM | 1000 to 10000 nM | 
19 | C=CC(=O)N1CCC(C#Cc2c(-c3ccc(Oc4ccccc4)cc3)c3c(N)ncnc3n2C(C)C(N)=O)CC1 (stereo not drawn) [Example I-33] | 10 to 1000 nM | 10 to 1000 nM |  | 10 to 1000 nM
20 | C=CC(=O)N1CC[C@@H](N2CC(C#Cc3c(-c4ccc(C(F)(F)F)cc4)c4c(N)ncnc4n3C)C2)[C@@H](O)C1 [II-72] | 10 to 1000 nM | 10 to 1000 nM | 10 to 1000 nM | 
21 | C=CC(=O)N1C[C@@H]2[C@@H](C#Cc3c(-c4ccc(Oc5cccc(C)n5)c5c4OCO5)c4c(N)ncnc4n3C)[C@@H]2C1 [II-135] | 10 to 1000 nM | 10 to 1000 nM | 10 to 1000 nM | 
22 | C=CC(=O)N1CC[C@H](N2CC(C#Cc3c(-c4ccc(Cl)c(C(F)F)c4)c4c(N)ncnc4n3C(C)C)C2)[C@H](O)C1 [II-118] | ≤ 10 nM | 10 to 1000 nM | 10 to 1000 nM | 
23 | C=CC(=O)N1CC[C@@H](N2CC(C#Cc3c(-c4ccc5c(c4)N(C)CCO5)c4c(N)ncnc4n3C)C2)[C@@H](O)C1 [II-77] | 1000 to 10000 nM | 1000 to 10000 nM | 1000 to 10000 nM | 
24 | C=CC(=O)N1C[C@@H]2[C@@H](C#Cc3c(-c4ccc(Oc5cccc(C)n5)cc4OC)c4c(N)ncnc4n3CCCS(C)(=O)=O)[C@@H]2C1 [II-52] | 10 to 1000 nM | 1000 to 10000 nM | 10 to 1000 nM | 

— patent publication US20250154154A1 (Relay Binney Street, 2nd Floor, priority 2020, published 2025)
